Measurements as given in PMC6420151 (Journal of medicinal chemistry, 2017).

Key:
Type in all cases: biochemical
MMP-13 [1] = target: T1, MMP-13 (Homo sapiens, UniProt P45452)
MMP-2 = target: T2, MMP-2 (Homo sapiens, UniProt P08253); test: MMP-2 enzyme assay with fTHP substrates; conditions: 200 nM
T2 sequence (P08253 110-660): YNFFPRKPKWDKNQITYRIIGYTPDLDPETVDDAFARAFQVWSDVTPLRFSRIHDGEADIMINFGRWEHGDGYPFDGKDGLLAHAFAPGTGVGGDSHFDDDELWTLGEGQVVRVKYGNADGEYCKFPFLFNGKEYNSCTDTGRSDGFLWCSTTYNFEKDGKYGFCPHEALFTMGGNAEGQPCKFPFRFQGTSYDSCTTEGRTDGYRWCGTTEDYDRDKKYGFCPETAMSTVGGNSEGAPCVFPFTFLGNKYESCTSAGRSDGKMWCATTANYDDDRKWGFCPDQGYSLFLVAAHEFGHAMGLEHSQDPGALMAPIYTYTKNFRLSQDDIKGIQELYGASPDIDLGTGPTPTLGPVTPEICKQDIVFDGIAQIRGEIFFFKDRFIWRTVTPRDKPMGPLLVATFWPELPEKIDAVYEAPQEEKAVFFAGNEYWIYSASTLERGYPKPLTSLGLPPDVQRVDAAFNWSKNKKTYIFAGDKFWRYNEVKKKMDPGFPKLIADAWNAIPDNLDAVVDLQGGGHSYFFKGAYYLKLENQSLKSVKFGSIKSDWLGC

MMP-8 = MMP-8 (Homo sapiens, UniProt P22894); test: MMP-8 enzyme assay with fTHP substrates; conditions: 200 nM
MMP-13 [2] = target: T1, MMP-13; test: In vitro type II collagen cleavage assay; conditions: 20 μM; intact type II collagen remaining after 24 h at 37 °C

Sequence of MMP-8 (P22894 101-467, species assumed): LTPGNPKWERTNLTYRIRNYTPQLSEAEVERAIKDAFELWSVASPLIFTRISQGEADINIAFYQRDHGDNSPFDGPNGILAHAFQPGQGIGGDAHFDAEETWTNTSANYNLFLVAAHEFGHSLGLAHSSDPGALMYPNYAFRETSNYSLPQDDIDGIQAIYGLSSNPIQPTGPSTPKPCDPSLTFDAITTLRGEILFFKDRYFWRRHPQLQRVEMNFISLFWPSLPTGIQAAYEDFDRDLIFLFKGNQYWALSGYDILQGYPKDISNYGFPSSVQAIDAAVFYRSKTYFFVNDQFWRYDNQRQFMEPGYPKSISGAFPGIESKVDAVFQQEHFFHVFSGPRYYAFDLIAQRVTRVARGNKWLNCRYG

CNC(=O)[C@H](NC(=O)c1ccc(-c2ccc(CSc3nc4c(c(=O)[nH]3)CCC4)cc2)o1)C(C)C [(R)-17a]
loss of inhibition activity vs MMP-13 compared to the (S)-enantiomer (MMP-13 [1]; D-valine analogue compared to L-valine analogue): ca. 40 fold

CNC(=O)[C@@H](NC(=O)c1ccc(-c2ccc(CSc3nc4c(c(=O)[nH]3)CCC4)cc2)o1)C(C)C [(S)-17a]
improvement of MMP-13 inhibition potency compared to 5 (MMP-13 [1]; compared to starting inhibitor 5): ~300 fold
inhibition of MMP-2 in single-dose assay (MMP-2): moderately active
inhibition of MMP-8 in single-dose assay (MMP-8): moderately active

Cc1ccc(CSc2nc(O)c3c(n2)CCC3)cc1 [Compound 5]
inhibition of collagenolysis (type II collagen cleavage by MMP-13) (MMP-13 [2]): nearly inactive
